{
  "source": "patent US20240115597A1",
  "about": "“METHOD FOR TREATING AND/OR PREVENTING HEARING LOSS BY USING TOLL-LIKE RECEPTOR 7 AND/OR 9 ANTAGONIST” (Kaohsiung Chang Gung Memorial Hospital, priority 2022, published 2024)",
  "key": {"CBA/CaJ mice [1]": {"system": "CBA/CaJ mice", "test": "Noise-induced auditory brainstem response (ABR) threshold shift", "format": "in vivo", "conditions": "3 weeks after 106-dB noise exposure, chloroquine 50 mg/kg intraperitoneal, ODN 2088 5 mg/kg subcutaneous, four treatments", "description": "(§1) The animal models used in this example and the following examples are as follows. Male CBA/CaJ mice at 4-6 weeks of age were purchased from National Laboratory Animal Center in Taiwan. The mice accessed to water and a regular mouse diet, and were kept at 22±1° C. under a standard 12h:12h light-dark cycle to acclimate for one week before the experiments. The lights were on from 5:00 to 17:00).\n(§2) The experimental procedure of noise exposure is as follows. Three awake CBA/CaJ mice in the same group were placed in a sound chamber, with one mouse per stainless steel cage. The sound chamber was fitted with a loudspeaker, driven by an amplifier connected to a CD player. Broadband noise (BBN) with a frequency of 2 to 20 kHz was compiled onto a CD and equalized with software. […]\n(§3) The experimental procedure of auditory brainstem response (ABR) is as follows. […] Body temperature was monitored and maintained near 37° C. with a heating pad. […] ABRs were measured at 8, 16, and 32 kHz. […] Thresholds were determined for each frequency by reducing the intensity in 10 dB increments and then in 5 dB steps near the threshold until no organized responses were detected. […] ABR thresholds were detected at before noise exposure and one week/three week after noise exposure. […]"}, "CBA/CaJ mice [2]": {"system": "CBA/CaJ mice", "test": "Noise-induced reduction of ABR wave I amplitude", "format": "in vivo", "conditions": "16 kHz; 106-dB noise; chloroquine 50 mg/kg intraperitoneal, ODN 2088 5 mg/kg subcutaneous", "description": "as §1\nThe experimental procedure of noise exposure is as follows. Three awake CBA/CaJ mice in the same group were placed in a sound chamber, with one mouse per stainless steel cage. The sound chamber was fitted with a loudspeaker, driven by an amplifier connected to a CD player. […]\nas §3\nTo test if TLR7/9 antagonists could protect the auditory nerve against acoustic trauma, we measured the ABR wave I amplitudes at 16 kHz, which is one of the most sensitive frequencies of the auditory spectrum in the mice."}, "NF-κB": {"system": "NF-κB", "test": "NF-κB immunostaining of the cochlea after noise", "format": "in vivo, mice", "conditions": "lateral wall, middle-basal segment; 106-dB noise", "description": "as §1\n(§4) The experimental procedure of noise exposure is as follows. Three awake CBA/CaJ mice in the same group were placed in a sound chamber, with one mouse per stainless steel cage. The sound chamber was fitted with a loudspeaker, driven by an amplifier connected to a CD player. Broadband noise (BBN) with a frequency of 2 to 20 kHz was compiled onto a CD and equalized with software. Sound levels were calibrated with a sound level meter (type 2250; Brtiel & Kja✓r) fitted with a microphone (type 4189; Brtiel & Kja✓r, Na✓rum, Denmark) at the locations of each cage within the sound chamber, before and after exposure to the noise. The control (sham) group was put in the same cage without exposure to noise for 2 hours. An intensity of 106 dB broadband noise was used to produce permanent threshold shifts.\n(§5) Chloroquine was dissolved in saline. ODN 2088 was dissolved in endotoxin-free water. The control group was endotoxin-free water. […]"}, "[3]": {"system": "cochlear cytokines and chemokines", "test": "Quantitative real-time RT-PCR of cochlear cytokine and chemokine gene expression after noise", "format": "in vivo, mice", "conditions": "one day after systemic (intraperitoneal) chloroquine treatment; noise exposure; normalized to Actb", "description": "as §1, §2\nTo test if TLR7/9 antagonist could affect the expression of cochlear cytokines and chemokines after noise, we used quantitative real-time reverse transcription polymerase chain reaction (quantitative real-time RT-PCR) to analyze gene expression in the cochlea one day after systemic chloroquine treatment.\nThe experimental procedure of RNA isolation and quantitative real-time RT-PCR is as follows. […] Real-time quantitative PCR was performed in an ABI 7500 Fast Real-Time System (Applied Biosystems). […]"}, "Iba-1±cells": {"system": "Iba-1±cells", "test": "Iba-1± cell (macrophage) infiltration into the cochlea after noise", "format": "in vivo, mice", "description": "as §1, §4, §5"}, "outer hair cell (OHC)": {"system": "outer hair cell (OHC)", "test": "Outer hair cell (OHC) counts in cochlear surface preparations after 106-dB noise", "format": "in vivo, mice", "conditions": "basal segment, chloroquine 50 mg/kg intraperitoneal", "description": "as §1, §2\nTo examine if TLR7/9 antagonist could protect the OHC from acoustic trauma, we counted the OHCs in surface preparations after 106-dB noise exposure. […]\nThe experimental procedure of immunocytochemistry for outer hair cell (OHC) counts is as follows. […] Cell populations in the phalloidin-stained stereociliary bundles and circumferential F-actin rings around the cuticular plate of the OHCs were evaluated using an epifluorescence microscope. […] Each successive 0.25 mm field was evaluated beginning from the apex to the base for counting the number of OHCs. […]"}},
  "note": "“Also recorded” adds a separate entry of the source.",
  "data": [
    {"smiles": "CCN(CC)CCCC(C)Nc1ccnc2cc(Cl)ccc12", "note": "(stereo not drawn) [chloroquine]", "values": [
      {"measurement": "noise-induced ABR threshold shift", "setting": "CBA/CaJ mice [1]", "result": "attenuate 106-dB noise-induced auditory threshold shifts"},
      {"measurement": "noise-induced ABR threshold shift", "setting": "CBA/CaJ mice [1]; listed as Chloroquine", "result": "decreased the noise-induced ABR thresholds shift"},
      {"measurement": "noise-induced decrease in ABR wave I amplitude", "setting": "CBA/CaJ mice [2]", "result": "attenuate 106-dB noise-induced wave I amplitude reduction at 16 kHz; also recorded: attenuated the noise-induced decrease in the amplitudes"},
      {"measurement": "immunostaining of NF-κB in the cochlea", "setting": "NF-κB", "result": "attenuates noise-induced nuclear factor kappa-B (NF-κB) immunostaining of the cochlea; also recorded: decreased the immunostaining of NF-κB"},
      {"measurement": "mRNA expression of Tlr9, MyD88, Il-1β, Tnf-α and Irf-7 in the cochlea", "setting": "[3]", "result": "decreases noise-induced elevation of cochlear cytokines and chemokines expression; also recorded: attenuated these changes"},
      {"measurement": "noise-induced elevation of Ccl2, Ccl4 and Ccl12 expression in the cochlea", "setting": "[3]", "result": "decreases noise-induced elevation of cochlear cytokines and chemokines expression; also recorded: decreased the noise-induced elevation"},
      {"measurement": "number of Iba-1±signals, quantification of immunofluorescence", "setting": "Iba-1±cells; each segment of the cochlea", "result": "reduces the number of Iba-1macrophage infiltration in the cochlea; also recorded: decreases the number of Iba-1signals in each segment of the cochlea"},
      {"measurement": "Iba-1±cell infiltration, immunohistochemistry", "setting": "Iba-1±cells; lower spiral ligament of the cochlea", "result": "attenuates noise-induced infiltration of Iba-1macrophages; also recorded: attenuates the increase in Iba-1cell infiltration"},
      {"measurement": "percentage of OHC loss", "setting": "outer hair cell (OHC)", "result": "decreases noise-induced outer hair cell (OHC) loss; also recorded: attenuated the percentage of OHC loss over this area"}
    ]}
  ]
}
